This is an account of results in PubChem BioAssay (NCI).

Among the test systems are OVCAR-5 ovarian; U251 CNS; UACC-62 melanoma; OVCAR-3 ovarian; EKVX NSCLC; SF-295 CNS; MDA-MB-435; LOX IMVI melanoma; SK-MEL-28 melanoma; RXF 393 renal.
Test in all cases: DTP human tumour cell line panel, 48 h

Each structure is given as a SMILES string. “And” between values parts separate entries of the source, which are not always exact repeats. Equal values may be shown once.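 Assay format: 96-well plates, 48-hour exposure. Here, GI50 denotes the concentration required for 50% inhibition of growth. TGI denotes the concentration required for complete inhibition of growth.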

`CC(=O)OCC1OC(n2cc(F)c(=O)[nH]c2=O)C(OC(C)=O)C1OC(C)=O` (centres undefined): the TGI in the assay with OVCAR-5 ovarian is > 100 µM; in the assay with U251 CNS, > 95.5 µM; in the assay on UACC-62 melanoma it was > 100 µM; in the assay with OVCAR-3 ovarian, 91.8 µM; in the assay with EKVX NSCLC, > 100 µM; in the assay with SF-295 CNS, > 100 µM. Also, the TGI was > 100 µM with MDA-MB-435, > 63.9 µM with LOX IMVI melanoma, > 100 µM with SK-MEL-28 melanoma and 99.2 µM in the assay with RXF 393 renal.
In the case of `Cc1cc(O)c2c(c1)C[C@@H](O)C1=C2C(=O)c2c(O)ccc(OC3CC(O)C(OC4CC(OC5CCC(OC6CC(O)C(OC7CC(OC8CCC(O)C(C)O8)C(O)C(C)O7)C(C)O6)C(C)O5)C(O)C(C)O4)C(C)O3)c2C1=O` (some centres undefined), the GI50 is 1.88 µM and 0.666 µM with OVCAR-5 ovarian; 0.469 µM and 0.306 µM in the assay with U251 CNS; 0.237 µM and 0.315 µM in the assay with UACC-62 melanoma; 0.223 µM in the assay with OVCAR-3 ovarian; 1.7 µM and 1.37 µM with EKVX NSCLC; 1.5 µM and 3.02 µM with SF-295 CNS. Further, the GI50 in the assay with MDA-MB-435 was 0.198 µM and 0.204 µM; in the assay on LOX IMVI melanoma, 0.295 µM and 0.23 µM; in the assay on SK-MEL-28 melanoma, 0.267 µM and 1.44 µM; in the assay with RXF 393 renal, 0.302 µM and 0.29 µM. Further, the TGI was 0.134 µM and 0.658 µM and 1.18 µM with UACC-62 melanoma; 0.138 µM and 0.765 µM in the assay on OVCAR-3 ovarian; 0.182 µM and 0.344 µM and 0.376 µM with MDA-MB-435; 0.108 µM and 0.535 µM and 0.751 µM in the assay on RXF 393 renal.
In the case of `Cc1nc2c(cnn2-c2ccnc3c(C(F)(F)F)cccc23)c(=O)o1`, the GI50 in the assay on OVCAR-5 ovarian is > 100 µM; in the assay with U251 CNS it was > 100 µM; in the assay with UACC-62 melanoma, 93.9 µM; in the assay with OVCAR-3 ovarian, > 100 µM; in the assay on EKVX NSCLC it was > 100 µM; in the assay with SF-295 CNS, > 100 µM. Moreover, the GI50 in the assay on MDA-MB-435, in the assay with LOX IMVI melanoma, in the assay with SK-MEL-28 melanoma and with RXF 393 renal was > 100 µM in each case. The TGI in the assay with OVCAR-5 ovarian, in the assay on U251 CNS, with UACC-62 melanoma, with OVCAR-3 ovarian, in the assay on EKVX NSCLC and in the assay on SF-295 CNS was > 100 µM each time. Further, the TGI in the assay with MDA-MB-435, with LOX IMVI melanoma, in the assay with SK-MEL-28 melanoma and with RXF 393 renal was > 100 µM each time.
As for `COc1c(O)c2ccccc2c2cc(O)ccc12`, the TGI in the assay with OVCAR-5 ovarian is 21.7 µM; in the assay with U251 CNS, 17.9 µM; in the assay with UACC-62 melanoma it was 6.1 µM; in the assay on OVCAR-3 ovarian, 19.2 µM; with EKVX NSCLC, 32.9 µM; in the assay on SF-295 CNS, 23.5 µM. The TGI with MDA-MB-435 was determined as 2.3 µM; with LOX IMVI melanoma, 7.53 µM; in the assay on SK-MEL-28 melanoma it was 11.9 µM; in the assay on RXF 393 renal it was 22.9 µM.
Consider `CC(=O)O[C@@H]1C=CC(=O)C2(CC(=O)O[C@@H]2/C=C(\C)CCC=C(C)C)C1` (some centres undefined), for which the GI50 in the assay with OVCAR-5 ovarian is 0.267 µM; with U251 CNS, 0.82 µM; with UACC-62 melanoma, 1.12 µM; in the assay on OVCAR-3 ovarian, 0.435 µM; in the assay with EKVX NSCLC, 3.28 µM; in the assay on SF-295 CNS, 1.75 µM. Moreover, the GI50 in the assay with MDA-MB-435 was 0.369 µM; in the assay on LOX IMVI melanoma, 0.229 µM; with SK-MEL-28 melanoma, 2.15 µM; in the assay with RXF 393 renal, 0.185 µM. Also, the TGI in the assay with OVCAR-5 ovarian came to 1.08 µM; with U251 CNS, 2.07 µM; with UACC-62 melanoma, 2.36 µM; in the assay on OVCAR-3 ovarian, 1.6 µM; with EKVX NSCLC it was 7.87 µM; in the assay on SF-295 CNS, 4.07 µM. For the same compound, the TGI in the assay with MDA-MB-435 amounted to 1.6 µM; in the assay on LOX IMVI melanoma, 0.743 µM; with SK-MEL-28 melanoma it was 7.79 µM; in the assay with RXF 393 renal it was 0.962 µM.
For the compound `COc1ccc(CCNc2nc3ccccc3c3[nH]c4ccccc4c23)cc1OC`, the GI50 in the assay on OVCAR-5 ovarian is 3.48 µM; in the assay with U251 CNS, 2.97 µM; in the assay with UACC-62 melanoma, 13 µM; in the assay on OVCAR-3 ovarian it was 1.98 µM; with EKVX NSCLC, 22.6 µM; with SF-295 CNS, 2.55 µM. The GI50 was 1.72 µM with MDA-MB-435, 2.28 µM with LOX IMVI melanoma, 1.71 µM in the assay on SK-MEL-28 melanoma and 1.47 µM in the assay with RXF 393 renal. Also, the TGI amounted to 11.6 µM in the assay with OVCAR-5 ovarian; 10.3 µM in the assay on U251 CNS; 26.6 µM with UACC-62 melanoma; 4.24 µM in the assay with OVCAR-3 ovarian; 45.3 µM in the assay with EKVX NSCLC; 9.02 µM with SF-295 CNS. The TGI is 3.37 µM in the assay on MDA-MB-435, 5.38 µM with LOX IMVI melanoma, 3.21 µM in the assay with SK-MEL-28 melanoma and 3.15 µM in the assay with RXF 393 renal.
With `[O-][n+]1onc2c3nn(-c4ccccc4)nc3ccc21`, the TGI with OVCAR-5 ovarian is > 100 µM; in the assay on U251 CNS it was > 100 µM; in the assay with UACC-62 melanoma, > 100 µM; in the assay on OVCAR-3 ovarian it was 72 µM; in the assay on EKVX NSCLC, > 100 µM; in the assay with SF-295 CNS it was > 100 µM. Besides, the TGI is > 100 µM with MDA-MB-435, > 58.3 µM with LOX IMVI melanoma, > 100 µM in the assay with SK-MEL-28 melanoma and > 100 µM in the assay with RXF 393 renal.
As to `COc1ccc(/C=C2/SC(=Nc3c(C)nn(-c4ccccc4)c3N)NC2=O)cc1`, the GI50 is 10.9 µM in the assay on OVCAR-5 ovarian; 4.75 µM in the assay on U251 CNS; 3.78 µM with UACC-62 melanoma; 2.6 µM in the assay with OVCAR-3 ovarian; 4.18 µM in the assay on EKVX NSCLC; 2.76 µM with SF-295 CNS. The GI50 with MDA-MB-435 is 1.27 µM; with LOX IMVI melanoma it was 3.88 µM; in the assay with SK-MEL-28 melanoma, 11.6 µM; with RXF 393 renal, 14.5 µM. The TGI in the assay on OVCAR-5 ovarian was 63.2 µM; in the assay on U251 CNS it was 34.7 µM; in the assay on UACC-62 melanoma, 18.3 µM; in the assay with OVCAR-3 ovarian it was 5.9 µM; with EKVX NSCLC it was 40 µM; with SF-295 CNS, 13.2 µM. In addition, the TGI in the assay with MDA-MB-435 is 3.97 µM; with LOX IMVI melanoma it was 15.8 µM; in the assay with SK-MEL-28 melanoma it was 50.5 µM; in the assay on RXF 393 renal it was 47.8 µM.
Consider `O=c1c(Cl)nsnc1Cl`, for which the TGI was 38.6 µM with OVCAR-5 ovarian; 35.9 µM with U251 CNS; 33.4 µM with UACC-62 melanoma; 17.1 µM in the assay on OVCAR-3 ovarian; 58.2 µM with EKVX NSCLC; 40.8 µM in the assay on SF-295 CNS. Moreover, the TGI came out at 28.1 µM with MDA-MB-435, 27.2 µM with LOX IMVI melanoma, 35.1 µM with SK-MEL-28 melanoma and 24.8 µM in the assay with RXF 393 renal.

As a reminder, the TGI is the concentration at which net growth stops. A low value points to greater sensitivity of the cells. The term GI50 denotes the concentration at which growth is held to half of that of the control.
